Source: US10046046B2, “Amino sphingoglycolipid analogues” (Victoria Link Limited, priority 2014, dated 2018)
Entries after “also recorded” stand apart in the source; their conditions may differ. Square brackets hold non-standard residues; d marks the D form. Peptide text beside a SMILES is read from it. * marks the point of attachment. ξ: configuration not given here. X1 = CCCCCCCCCCCCCCCCCCCCCCCCCC(=O)N[C@@H](CO[C@H]1OC(CNC(=O)OCOC(=O)CC/C(C)=N/OCC(=O)*)[C@H](O)[C@H](O)C1O)[C@H](O)[C@H](O)CCCCCCCCCCCCCC; ξF = NC(Cc1ccccc1)C(=O)O

Legend:
CD11c+ dendritic cells = assay: CD86 expression on splenic dendritic cells; type: in vivo, C57BL/6 mice; conditions: 0.571 nmol intravenously, spleens removed 20 h later, n=3, FIG. 3
Experimental: Groups of C57BL/6 mice (n=3) are injected intravenously with 0.571 nmol of the indicated compounds and then the spleens removed 20 h later for the analysis of CD86 expression on CD11c^+ dendritic cells by antibody labelling and flow cytometry. Mean fluorescence index (MFI)±SEM are presented. *P<0.05, *P<0.01, ***P<0.001
Antibody staining and flow cytometry is used to examine the expression of maturation markers on dendritic cells in the spleen following injection of compounds of the invention (0.23 nmol). Splenocyte preparations are prepared by gentle teasing of splenic tissue through gauze in Iscove's Modified Dulbecco's Medium with 2 mM glutamine, 1% penicillin-streptomycin, 5×10^-5 M 2-mercapto-ethanol and 5% fetal bovine serum (all Invitrogen, Auckland, New Zealand), followed by lysis of red blood cells with RBC lysis buffer (Puregene, Gentra Systems, Minneapolis, Minn., USA). Antibody staining is performed in PBS 2% fetal bovine serum and 0.01% sodium azide. The anti-FcgRII monoclonal antibody 2.4G2 is used at […] to inhibit non-specific staining. Monoclonal antibodies (all BD Biosciences Pharmingen, San Jose, Calif., USA) are used to examine expression of the maturation markers CD40, CD80 and CD86 on CD11c+ dendritic cells.

[1] = tested on: SIINFEKL-specific T cells; assay: Peptide-specific T cell proliferation in vivo (OT-1 transfer); parameters: species or system C57BL/6 mice; conditions: intravenous vaccination one day after transfer of 10,000 OT-1 cells, equivalent molar dose of SIINFEKL, blood after seven days, FIG. 2
Experimental: The compounds are injected to give the equivalent molar dose of SIINFEKL (SEQ ID NO: 262) peptide in each case. To increase sensitivity of the assay, all mice are initially donated a cohort of 10,000 SIINFEKL-specific T cells from a transgenic mouse encoding a T cell receptor for this antigen (OT-1 mice) by intravenous injection of the cells one day before the vaccines are administered. […] It is therefore possible to enumerate SIINFEKL-specific T cells in blood by flow cytometry using antibodies for CD45.1 together with antibodies for the transgenic T cell receptor (Vα2). Control animals (naïve) are injected with the diluent phosphate-buffered saline (PBS). […] Each dot represents a different animal; mean per treatment group±SEM are presented. *P<0.05, *P<0.01, ***P<0.001
Pooled lymph node cell suspensions are prepared from animals of a cross between OT-1 mice, which express a transgenic T cell receptor (TCR) specific for the ovalbumin epitope SIINFEKL (SEQ ID NO: 262)-in the context of H-2K^b molecules, and B6.SJL-Ptprc^a Pepc^b/BoyJ mice, which are congenic with C57BL/6 mice for the CD45.1^+ marker. The samples are enriched for CD8^+ cells using antibody coated magnetic beads (Miltenyi), and then transferred into C57BL/6 mice (1×10^4 per mouse). Groups of recipient animals (n=5) are immunized with compounds of the invention one day later. […]

[2] = tested on: NKT cell activity (CD86 on B cells in the peripheral blood); assay: CD86 expression on peripheral blood B cells as readout of NKT cell activity; type: in vivo, C57BL/6 mice; conditions: 0.23 nmol intravenously, blood collected 20 h later, n=3, FIG. 1
Experimental: Groups of C57BL/6 mice (n=3) are injected intravenously with 0.23 nmol of the indicated glycolipid compounds and then the blood samples collected 20 h later for the analysis of CD86 expression on CD45 (B220)+B cells by antibody labelling and flow cytometry. Mean fluorescence index (MFI)±SEM are presented, *P<0.05, *P<0.01, ***P<0.001.
Each compound of the invention is supplied as formulated product (see example 3), and diluted in phosphate-buffered saline (PBS) for injection (0.23 nmol/mouse) by intravenous injection into the lateral tail vein. In humans the expected therapeutic dose lies in the 50-4800 (μg/m^2) range (Giaccone, Punt et al. 2002). Note, 0.23 nmol in a mouse is a human equivalent dose of 30 μg/m^2 for α-GalCer.
All antibody labelling is performed on ice in FACS buffer (PBS supplemented with 1% FCS, 0.05% sodium azide, and 2 mM EDTA). Non-specific FcR-mediated antibody staining is blocked by incubation for 10 min with anti-CD16/32 Ab (24G2, prepared in-house from hybridoma supernatant). Flow cytometry is performed on a BD Biosciences FACSCalibur or BD LSRII SORP flow cytometer with data analysis using FlowJo software (Tree Star, Inc., OR, USA).
Antibody staining and flow cytometry are used to examine the expression of the maturation markers CD86 on peripheral blood B cells following injection of compounds of the invention. […]

human NKT cells = conditions: Kawano, Cui et al. 1997; cited from earlier work
[3] = Ebensen, Link et al. 2007; cited from earlier work
mouse NKT cells = conditions: Kawano, Cui et al. 1997; cited from earlier work
B16.OVA melanoma cells = assay: Anti-tumour activity against subcutaneous B16.OVA tumours; type: in vivo, C57BL/6 mice; conditions: 0.571 nmol intravenously five days after tumour challenge, n=5, FIG. 5
Experimental: Progression of subcutaneous B16.OVA tumours is monitored in animals treated five days after tumour challenge with intravenous CI-017 or CN159 peptide and α-GalCer or with PBS. The mean tumour sizes per group (n=5)±SEM are shown.
Groups of C57BL/6 mice (n=5) receive a subcutaneous injection into the flank of 1×10^5 B16.OVA melanoma cells, which express a cDNA encoding the chicken ovalbumin (OVA) sequence. The different groups are treated five days later by intravenous injection of one of the following; CI-017 (0.571 nmol), peptide CN159 (0.571 nmol) mixed with α-GalCer (0.571 nmol), or PBS. Mice are monitored for tumour growth every 3-4 days, and tumour size for each group calculated as the mean of the products of bisecting diameters (±SEM). Measurements are terminated for each group when the first animal develops a tumour exceeding 200 mm^2.

[4] = tested on: syngeneic splenocytes loaded ex vivo with SIINFEKL; assay: Peptide-specific T cell-mediated cytotoxicity in vivo (VITAL assay); parameters: species or system mice; conditions: 0.571 nmol intravenously, targets injected 7 days after vaccination, 5 animals per group, FIG. 4
Experimental: The compounds are injected to give the equivalent molar dose of SIINFEKL (SEQ ID NO: 262) peptide, in each case of 0.571 nmol. Flow cytometry is used to assess the killing of target cells comprised of syngeneic splenocytes loaded ex vivo with 5 μM SIINFEKL (SEQ ID NO: 262) injected intravenously 7 days after vaccination. To discriminate the targets from host tissue, the injected cells are labelled with the fluorescent dye carboxyfluorescein succinimidyl ester (CFSE). A cohort syngeneic splenocytes (without peptide) labelled with the fluorescent dye cell tracker orange are also injected to serve as controls. Killing is defined as the percentage of peptide-loaded targets killed relative to control cells. Each treatment group contained 5 animals. Control animals are injected with the diluent phosphate-buffered saline (PBS). […] Mean percentage of killing per group±SEM are shown. ***p<0.001
The cytotoxic capacity of induced CD8^+ T cell responses is measured by VITAL assay (Hermans, Silk et al. 2004). […] Specific lysis of the peptide-loaded targets is monitored by flow cytometry of blood or spleen samples 24 h later. Mean percent survival of peptide-pulsed (CFSE+) targets is calculated relative to that of the control population (CTO+), and cytotoxic activity is expressed as percent specific lysis (100−mean percent survival of peptide-pulsed targets).

In the case of `CCCCCCCCCCCCCCCCCCCCCCCCCC(=O)N[C@@H](CO[C@H]1OC(CN)[C@H](O)C(O)C1O)[C@H](O)[C@H](O)CCCCCCCCCCCCCC` (some centres unmarked) [CN168], the “CD86 expression on CD11c+ dendritic cells in spleen (mean fluorescence index)” value (CD11c+ dendritic cells) is reported as “potently activated dendritic cells”.

For `CCCCCCCCCCCCCCCCCCCCCCCCCC(=O)N[C@@H](CO[C@H]1OC(CNC(=O)OCOC(=O)CC/C(C)=N/OCC(=O)N[C@@H](Cc2ccccc2)C(=O)NC(Cc2ccccc2)C(=O)N[C@@H](CCCNC(=N)N)C(=O)N[C@@H](CCCCN)C(=O)N[C@@H](CO)C(=O)N[C@H](C(=O)N[C@H](C(=O)N[C@@H](CC(N)=O)C(=O)N[C@@H](Cc2ccccc2)C(=O)N[C@@H](CCC(=O)O)C(=O)N[C@@H](CCCCN)C(=O)N[C@@H](CC(C)C)C(=O)O)[C@@H](C)CC)[C@@H](C)CC)[C@H](O)[C@H](O)C1O)[C@H](O)[C@H](O)CCCCCCCCCCCCCC` (stereo partly drawn) [CN169, (2S,3S,4R)-1-(6-Deoxy-6-(4-((2-(FFRKSIINFEKL)-2-(oxo)ethoxyimino)pentanoyloxy)methoxycarbonylamino)-α-D-galactopyranosyloxy)-2-hexacosanoylamino-3,4-octadecandiol] (X1-F[ξF]RKSIINFEKL-OH), the “SIINFEKL-specific T cells (Vα2+ CD45.1+) in blood” value [1] was “increased antigen-specific T cell response; also recorded: larger population of peptide-specific T cells; also recorded: larger population of SIINFEKL-specific T cells” and the “CD86 expression on CD45 (B220)+ B cells in peripheral blood (mean fluorescence index)” value [2] was “potently activate B cells”.

For `CCCCCCCCCCCCCCCCCCCCCCCCCC(=O)N[C@@H](CO[C@H]1O[C@H](CO)[C@H](O)[C@H](O)[C@H]1O)[C@H](O)[C@H](O)CCCCCCCCCCCCCC` [α-GalCer, α-Galactosylceramide], the “Activation of human NKT cells” value (human NKT cells) is given as “potently activates”, the Solubility [3] is given as “poor solubility” and the “Activation of mouse NKT cells” value (mouse NKT cells) is given as “potently activates”.

With “(2S,3S,4R)-1-(6-Deoxy-6-(4-β-(FFRKSIINFEKL)-3-oxopropyl)-1H-1,2,3-triazol-1-yl)hexanoyl)-(N-Val-Cit-4-aminobenzyloxycarbonylamino)-1-(α-D-galactopyranosyloxy))-2-hexacosanoylamino-3,4-octadecandiol [CI-017]” the “Anti-tumour activity (mean tumour size)” value (B16.OVA melanoma cells) was “superior anti-tumour activity” and the “SIINFEKL-specific cytotoxicity (percentage of peptide-loaded targets killed relative to control cells)” value [4] was “greater SIINFEKL (SEQ ID NO: 262)-specific cytotoxicity”.
